Data reported in patent EP0404945A1 (priority 1989, dated 1990).
Read-outs that look alike come from different tables or passages of the source.

Assays:
Virus of hepatitis B = assay: microbe, parasite or virus in culture; settings: 0.5 h, read-out: Death of viruses (%) at 30 minutes exposure, Virus of hepatitis B
Helminthosporum saturem = type: cell-based
ascarid ovi = assay: animal or person; type: in vivo, pig.ascarid; settings: read-out: Death of ascarid ovi, % Tests laboratory
Alternaria radicina = type: cell-based
Venturia inaequalis = type: cell-based
Fusarium oxysporum = type: cell-based
Penicillium sporum = type: cell-based
[1] = test system: Infectant of poliomyelitis
Candida albicans = assay: microbe, parasite or virus in culture; type: cell-based
Aspergillus niger = type: cell-based
Staphylococcus aureus = assay: microbe, parasite or virus in culture; type: cell-based; settings: read-out: Efficiency of the preparation, % Staphylococcus aureus
Candida tropicalis = assay: microbe, parasite or virus in culture; type: cell-based
Colibacillus = assay: microbe, parasite or virus in culture; type: cell-based; settings: read-out: Efficiency of the preparation, % Colibacillus
houseflies = settings: house fly, in vivo
[2] = in vivo; cited from earlier work

In the case of `O=[N+]([O-])c1ccc(C(Cl)C(CCl)NP(=O)(O)O)cc1` (stereo not shown) [Example 3], the killing at 1 % (Virus of hepatitis B) is reported as 100%, the “Mycelium growth inhibition, % to the control, Helminthosporum saturem” value (Helminthosporum saturem) is reported as 100% and the killing at 3 % (ascarid ovi) is reported as 100%. The “Mycelium growth inhibition, % to the control, Alternaria radicina” value (Alternaria radicina) was 80%, the “Mycelium growth inhibition, % to the control, Venturia inaequalis” value (Venturia inaequalis) was 98% and the “Mycelium growth inhibition, % to the control, Fusarium oxisporum” value (Fusarium oxysporum) was 68%. The “Mycelium growth inhibition, % to the control, Penicillium sporum” value (Penicillium sporum) was 100%, the “Death of viruses (%) at 60 minutes exposure, Infectant of poliomyelitis” value [1] was 80% and the killing at 0.05 % (Candida albicans; 2 h, read-out: Death of test fungi, % to the control, Candida albicans 2 hrs) was 100%. The killing at 0.05 % (Candida albicans; 20 h, read-out: Death of test fungi, % to the control, Candida albicans 20 hrs) was 100%, the “Mycelium growth inhibition, % to the control, Aspergillus niger” value (Aspergillus niger) was 100% and the killing at 0.5 % (Staphylococcus aureus) was 100%. For the same molecule, the killing at 0.05 % (Candida tropicalis; 2 h, read-out: Death of test fungi, % to the control, Candida tropicalis 2 hrs) was 99%, the killing at 0.05 % (Candida tropicalis; 20 h, read-out: Death of test fungi, % to the control, Candida tropicalis 20 hrs) was 100% and the killing at 0.5 % (Colibacillus) was 100%.

With `COP(=O)(OC)C(O)C(Cl)(Cl)Cl` (stereo not shown) [Known insecticidal preparation, O,O-Dimethyl-(1-hydroxy-2,2,2-tri-chloroethyl)-phosphonate] the “Death of flies, % Tests laboratory” value (houseflies) was 90%, the “Death of flies, % after 48 hours” value (houseflies; 48 h) was 81% and the “Death of flies, % after 72 hours” value (houseflies; 72 h) was 84%. The LD50 [2] was 225 - 1,200 mg/kg.
